Data as given in patent US9708370B2, “Azapeptides as CD36 binding compounds” (VALORISATION-RECHERCHE, LIMITED PARTNERSHIP, priority 2007, dated 2017).
Entries after “also recorded” stand apart in the source; their conditions may differ. Starred links: 1 amine or outer side, 2 acyl side, 3 side chain; linkers in the order of their positions; H or OH if unused. Non-standard residues stand in square brackets, D forms with d. Residues, ends and D or L forms follow the SMILES beside them. azaTyr = O=C(N(Cc1ccc(O)cc1)N[*:1])[*:2]

Tests used:
human GHS-R1a = human GHS-R1a (Homo sapiens (Human), UniProt Q92847); assay: GHS-R1a binding assay, competition with 125I-ghrelin on membranes of LLC-PK1 cells expressing human GHS-R1a
[1] = test system: vascular sprouting of aortic endothelium (aortic rings); assay: Inhibition of microvascular sprouting from Matrigel-embedded aortic explants; type: cell-based, mice
From the text: FIG. 1 illustrates disruption of vascular sprouting of aortic endothelium by azapeptide compound DBG178. Sprouting aortic endothelium (Von Willebrand factor positive) expressing CD36 is shown in the upper row of FIG. 1a. Vascular sprouting of aortic rings from C57BL/6 and CD36 null mice in the presence of DBG 178 at 10^−7M is shown in the lower row of FIG. 1a. Histograms of microvascular sprouts areas (mean±s.e.m) from aortic explants of C57BL/6 and CD36 null mice exposed to DBG concentrations from 10^−8 to 10^−6 M p<0.01 compared with control (Ctl) is shown in FIG. 1b.
Aortas were excised from 10-week-old male C57/Bl6+/+ and CD36−/− mice of C57/Bl6 background. The fibroadipose tissue was removed and aortas were sectioned into 2-mm-long cross-sections. The +/+ and −/− rings were covered by 50 μl of Matrigel and cultured for 4 days in EGM-2 medium (Clonetics Corp.). Explants were then exposed to vehicle alone or in presence of an azapeptide prototype DBG178 at the indicated concentrations (10^−8 to 10^−6 M) from day 4 to day 6 of culture in EGM-2 medium. Pictures of each individual explant were taken at day 4 and day 6 and EC growth was measured as the surface covered at day 6 minus the surface covered at day 4 Data were subject to analysis of variance (ANOVA) followed by Dunnet's post test to test for differences among groups. Outgrowing cells were characterized by double-labelling with monoclonal vWF antibody (1:100, Dako) and polyclonal CD36 (1:100, Santa Cruz) after acetone fixation using their respective alexa coupled secondary antibodies.

Chain of human GHS-R1a (Q92847 whole entry): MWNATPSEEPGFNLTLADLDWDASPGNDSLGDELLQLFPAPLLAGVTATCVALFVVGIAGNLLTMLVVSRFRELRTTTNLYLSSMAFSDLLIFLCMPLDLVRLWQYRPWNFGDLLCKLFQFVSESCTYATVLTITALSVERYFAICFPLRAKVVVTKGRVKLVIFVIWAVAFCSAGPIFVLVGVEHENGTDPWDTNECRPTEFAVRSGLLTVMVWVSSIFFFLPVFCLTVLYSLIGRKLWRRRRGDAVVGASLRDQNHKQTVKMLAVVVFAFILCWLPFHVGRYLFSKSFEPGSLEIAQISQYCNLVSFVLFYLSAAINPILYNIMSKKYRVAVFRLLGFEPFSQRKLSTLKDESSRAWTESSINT

IC50 (human GHS-R1a; Table 4, LLCPK-1 membranes overexpressing GHS-R1a, radioiodinated (1-28) rat ghrelin as tracer, read-out: EC50 (text: IC50 values from competition curves in GHS-R1a radioreceptor assay)): 15.7 µM | binding affinity for GHS-R1a receptor in words (human GHS-R1a; compared with GHRP-6): reducing the binding affinity
SMILES: C[C@H](NC(=O)[C@@H](Cc1c[nH]c2ccccc12)NC(=O)[C@@H](N)Cc1cnc[nH]1)C(=O)NN(Cc1ccc(O)cc1)C(=O)N[C@H](Cc1ccccc1)C(=O)N[C@@H](CCCCN)C(N)=O [DBG178p, His-D-Trp-Ala-azaTyr-D-Phe-Lys-NH2] (H-H[dW]A[azaTyr][dF]K-NH2)
inhibition of vascular sprouting of aortic rings ([1]; aortic rings from C57BL/6 mice, 10^−7 to 10^−6 M): disrupt significantly; also recorded: significantly inhibited | inhibitory effect on vascular sprouting of aortic rings ([1]; aortic rings from CD36 null mice): not detected
